The values that follow come from patent US9006221B2, “Method of modulating ship activity” (H. Lee Moffitt Cancer Center and Reserach Institute, Inc., priority 2008, dated 2015).

The assay has as its target T1, SHIP2 (Homo sapiens, UniProt O15357).
T1 sequence (O15357 1-1258): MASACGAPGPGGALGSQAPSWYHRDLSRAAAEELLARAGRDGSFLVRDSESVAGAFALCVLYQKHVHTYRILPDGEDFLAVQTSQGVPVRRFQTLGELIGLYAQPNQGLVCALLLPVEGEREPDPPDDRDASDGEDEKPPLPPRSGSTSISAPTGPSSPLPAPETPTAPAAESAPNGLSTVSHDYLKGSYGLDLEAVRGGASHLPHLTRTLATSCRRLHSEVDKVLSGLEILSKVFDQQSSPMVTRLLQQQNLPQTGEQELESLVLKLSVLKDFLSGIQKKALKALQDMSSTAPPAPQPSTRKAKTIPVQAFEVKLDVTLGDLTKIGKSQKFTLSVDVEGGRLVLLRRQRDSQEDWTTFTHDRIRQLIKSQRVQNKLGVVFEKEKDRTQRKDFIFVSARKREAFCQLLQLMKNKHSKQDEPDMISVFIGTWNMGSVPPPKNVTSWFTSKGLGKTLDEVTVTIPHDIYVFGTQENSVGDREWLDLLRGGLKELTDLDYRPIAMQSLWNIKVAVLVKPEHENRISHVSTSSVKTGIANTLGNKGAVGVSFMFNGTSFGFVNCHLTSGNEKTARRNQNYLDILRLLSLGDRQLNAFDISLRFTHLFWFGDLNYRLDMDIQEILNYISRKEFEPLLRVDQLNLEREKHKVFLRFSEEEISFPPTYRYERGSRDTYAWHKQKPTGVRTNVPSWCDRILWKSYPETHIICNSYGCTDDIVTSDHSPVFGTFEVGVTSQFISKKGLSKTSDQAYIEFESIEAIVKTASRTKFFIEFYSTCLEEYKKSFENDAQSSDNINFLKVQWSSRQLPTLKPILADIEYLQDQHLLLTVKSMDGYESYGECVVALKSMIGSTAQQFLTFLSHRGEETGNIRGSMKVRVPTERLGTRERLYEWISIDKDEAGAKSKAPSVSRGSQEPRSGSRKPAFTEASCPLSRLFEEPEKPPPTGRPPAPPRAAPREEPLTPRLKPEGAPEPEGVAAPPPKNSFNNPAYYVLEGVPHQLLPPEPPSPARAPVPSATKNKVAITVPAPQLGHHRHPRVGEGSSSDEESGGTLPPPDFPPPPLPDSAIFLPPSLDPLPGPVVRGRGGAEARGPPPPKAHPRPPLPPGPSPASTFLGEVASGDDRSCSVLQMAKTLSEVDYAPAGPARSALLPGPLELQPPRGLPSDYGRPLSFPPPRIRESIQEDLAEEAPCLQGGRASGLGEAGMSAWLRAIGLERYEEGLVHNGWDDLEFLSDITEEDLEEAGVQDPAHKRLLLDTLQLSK
The assay is described as follows: FP assay of SHIP2 enzymatic activity. In kind it is biochemical. The source says:
No Compound—FP assay conducted with purified SHIP1 or SHIP2 as indicated in the absence of inhibitor. No Enzyme—FP assay conducted in SHIP buffer and fluorescent substrate in the absence of enzyme.
Thus far, none of the inhibitors have been identified as selective for SHIP1 over SHIP2. The majority of SHIP inhibitors identified show selectivity for 5′ inositol phosphatases and thus might be used to target SHIP1 or SHIP2 activity.
Assay of SHIP1 enzymatic activity: A fluorescent polarization (FP) assay that detects the 5′-inositol phosphatase activity of SHIP1 was developed based on a previously established protocol [Drees B E, et al., Comb Chem High Throughput Screen (2003) 6(4):321-330] and was obtained from Echelon Biosciences (Salt Lake City, USA). Modifications of the protocol included the application of SHIP1 in the assay and an increase in the concentration of MgCl2 to […] to maximize the activity of SHIP1 in this assay. Each enzymatic reaction was performed in a 96 well working plate and added in the following order and concentration: Recombinant SHIP1 (0.1 μg) in PBS+20 mM MgCl2, 100 μM of each individual compound from the NCI Diversity Set and then PI(3,4,5)P3 substrate diluted 1:10 in H2O. The enzymatic reaction was incubated for 30 min at room temperature. The detector, reaction mixture and probe were then combined according to the SHIP2 protocol. […]

On to `OC(c1cc(-c2ccccc2)nc2c1ccc1ccccc12)C1CCCCN1` (centres unmarked) [NSC13480, (2-phenylbenzo[h]quinolin-4-yl)-piperidin-2-ylmethanol], for which the “inhibition of SHIP2 enzymatic activity” value is “inhibit both SHIP1 and SHIP2 enzymatic activity”. Take `CC(C)CCC[C@@H](C)[C@H]1CC[C@H]2[C@@H]3CC[C@H]4C[C@H](N)CC[C@]4(C)[C@H]3CC[C@]12C` [NSC23922, (3R,5S,8R,9S,10S,13R,14S,17R)-10,13-dimethyl-17-[(2R)-6-methylheptan-2-yl]-2,3,4,5,6,7,8,9,11,12,14,15,16,17-tetradecahydro-1H-cyclopenta[a]phenanthren-3-amine]: the “inhibition of SHIP2 enzymatic activity” value was “inhibit both SHIP1 and SHIP2 enzymatic activity”.
